This note sets out measurements from PubChem BioAssay AID1645848.

≈ marks a conversion by molar mass, not a printed value.

For the data set the following is noted: buffer; pH 7.4; 6.0 h; 150.0 µM.
`O=C(Nc1ccc(Cl)c(S(=O)(=O)N2CCOCC2)c1)c1ccccc1` displayed a kinetic solubility of less than 1 µg/mL. `O=C(Nc1ncc(Cc2ccc(C(F)(F)F)cc2)s1)c1cnc(-c2ccccc2)[nH]1` registered a kinetic solubility of less than 1 µg/mL.

`Cc1ccc(NC(=O)c2cc(-c3ccc(C)o3)nc3ccccc23)nc1` registered a kinetic solubility of less than 1 µg/mL. In the case of `Cc1ccc(S(=O)(=O)Nc2ccc(C(=O)Nc3nc(-c4ccccc4)cs3)cc2Cl)cc1` it was less than 1 µg/mL. In the case of `Cc1cc(NS(=O)(=O)c2ccc(NC(=O)Cc3ccc(Cl)c(Cl)c3)cc2)n(C)n1` it was greater than 67 µg/mL.

In the case of `Cn1cnc2c(F)c(Nc3ccc(Br)cc3Cl)c(C(=O)NOCCO)cc21`, the solubility (kinetic) was greater than 45 µg/mL. The same measure for `O=C(Nc1cc(C(F)(F)F)ccc1N1CCOCC1)c1n[nH]c(=O)c2ccccc12`: less than 1 µg/mL; for `CC(=O)N1CCC(NC(=O)c2nc(-c3ccccc3)cc3[nH]ccc23)CC1`: greater than 80 µg/mL; for `COc1ccc(Cl)cc1C(=O)Nc1ccc(NC(=O)c2ccco2)cc1`: less than 1 µg/mL. In the case of `Cc1noc(-c2cn(C3CCN(C(=O)c4ccc(OC(F)(F)F)cc4)CC3)nn2)n1` it was 37.9 µg/mL (≈ 89.7 µM); in that of `O=C1Nc2ccc(Cl)cc2/C1=C\c1cc(Cl)c(O)c(Cl)c1`, 19 µg/mL (≈ 55.8 µM). The same measure for `NC(=O)C1CCN(c2ncc(-c3cccc(F)c3)s2)CC1`: 17.7 µg/mL (≈ 58.1 µM); for `O=C(Nc1ccc(Cl)cc1)C(NS(=O)(=O)c1cccs1)c1ccccc1` (stereo unspecified): less than 1 µg/mL. In turn, `CC1=C[C@@H](CN2C(=O)C(C)=C(C)C2=O)[C@H](C(C)C)C[C@H]1Cc1nc2c(C)cccc2[nH]1` showed a kinetic solubility of 3.65 µg/mL (≈ 8.7 µM).

With `O=C(Nc1ccc(N2CCN(C(=O)c3ccccc3F)CC2)cc1)c1cncc(Br)c1`, the solubility (kinetic) is 3.75 µg/mL (≈ 7.77 µM). The same measure for `c1ccc2c(Nc3ccc4nc[nH]c4c3)nc(-c3ccncc3)nc2c1`: less than 1 µg/mL; for `CCCN(C(=O)c1sc2nc3n(c(=O)c2c1C)CCCC3)c1ccccc1C`: 1.83 µg/mL (≈ 4.64 µM). `CC(=O)Nc1cccc(-c2csc(Nc3cc(C)ccn3)n2)c1`: the solubility (kinetic) is less than 1 µg/mL. The same measure for `O=C(Nc1ccc([N+](=O)[O-])cc1Cl)c1cc(Cl)ccc1O`: 1.14 µg/mL (≈ 3.47 µM). In the case of `O=[S+]([O-])(Nc1ccc(C2CCNCC2)cc1)c1ccc(NCc2ccc(Cl)cc2O)cc1` it was 23.9 µg/mL (≈ 50.6 µM). The same measure for `Cc1nc(N2CCN(c3ccccn3)CC2)c2c(C)c(C(=O)Nc3ccc(F)cc3Cl)sc2n1`: less than 1 µg/mL. `CNC1CCC(N(Cc2ccc(OC)c(-c3ccc(C#N)cc3)c2)C(=O)c2sc3ccccc3c2Cl)CC1` (stereo unspecified) showed a kinetic solubility of 16.7 µg/mL (≈ 30.7 µM). In the case of `Nc1ncnc2c1C(=O)N(c1ccc(C3CCC(CC(=O)O)CC3)cc1)CCO2` (stereo unspecified) it was greater than 59 µg/mL; in that of `OCc1ccc(-c2cc3c(ccn3Cc3cccnc3)c(C3=CCOCC3)n2)cc1`, 54.9 µg/mL (≈ 138 µM). The same measure for `CC(C)Oc1cccc(-c2csc(N3CCC(C(N)=O)CC3)n2)c1`: 41.7 µg/mL (≈ 121 µM).

On to `O=C(Nc1cccc(C(F)(F)F)c1)C1=CCN(Cc2ccc(F)cc2)CC1`, for which the kinetic solubility came out at 26.2 µg/mL (≈ 69.2 µM). The same measure for `O=C(Nc1ccc(S(=O)(=O)Nc2nccs2)cc1)c1cccnc1`: greater than 53 µg/mL; for `CC(=O)c1c(C)[nH]c(C(=O)Nc2cccc([S+](=O)([O-])N3CCC(F)(F)CC3)c2)c1C`: 8.98 µg/mL (≈ 20.4 µM); for `CC(C)Oc1cccc(C2CC(=O)Nc3cc4c(cc32)OCO4)c1` (stereo unspecified): 1.53 µg/mL (≈ 4.7 µM). The same measure for `CN1C(=O)c2ccccc2[S@](=O)c2ccc(C(=O)NCc3ccc(Cl)cc3)cc21`: 4.37 µg/mL (≈ 10.3 µM); for `CCn1c(-c2nonc2N)nc2cnc(Oc3cccc(NC(=O)c4ccc(OCCN5CCOCC5)cc4)c3)cc21`: less than 1 µg/mL.

The molecule `CCOC(=O)c1cnc2ccc(-c3cncc(NS(=O)(=O)c4ccccc4)c3)cn12` registered a solubility (kinetic) of 6.49 µg/mL (≈ 15.4 µM). The same measure for `CCn1c(SCc2ccc(C#N)cc2)nnc1-c1cccc(Cl)c1`: 34.2 µg/mL (≈ 96.3 µM). `COc1ccc(-n2nc(C3CCN(C(=O)c4ccccc4)CC3)[nH]c2=O)cc1` yielded a solubility (kinetic) greater than 56 µg/mL.

Take `C=CCc1cccc(CNc2ccc(S(=O)(=O)Nc3nccs3)cc2)c1O`: the kinetic solubility was found to be 23.1 µg/mL (≈ 57.5 µM). Turning to `O=C(Nc1ccccc1)C1CCN(c2ncc(-c3ccc4c(c3)OCCCO4)s2)CC1`, the kinetic solubility was less than 1 µg/mL. The same measure for `O=C(Nc1ncc(Cc2ccc(C(F)(F)F)cc2)s1)c1cnc(-c2ccccc2)o1`: less than 1 µg/mL; for `Cc1ccc(NS(=O)(=O)c2cccc(C(=O)Nc3nc(-c4ccccc4)cs3)c2)cc1`: less than 1 µg/mL; for `CCS(=O)(=O)c1ncc(N(Cc2ccc(F)cc2)Cc2ccco2)c(C(=O)Nc2cc(C)ccc2C)n1`: less than 1 µg/mL.

In the case of `O=C1CCCC2=C1C(c1[nH]ncc1Cl)N=C(Nc1nc3cc([S+](=O)([O-])N4CCCC4)ccc3o1)N2` (stereo unspecified), the kinetic solubility was 36.2 µg/mL (≈ 70.2 µM). The molecule `COC(=O)c1ccc(Nc2nc(-c3ccncc3)nc3ccccc23)cc1OC` came in with a kinetic solubility of less than 1 µg/mL. In the case of `Fc1ccc(-c2csc3ncnc(Sc4nnnn4-c4ccccc4)c23)cc1` it was 0.705 µg/mL (≈ 1.73 µM); in that of `COc1ccc(NC(=O)c2ccccc2)cc1S(=O)(=O)Nc1ccc(Br)cc1`, less than 1 µg/mL; in that of `O=C(Cc1n[nH]c(=O)c2ccccc12)NC1CCCc2c1[nH]c1c(Cl)cccc21` (stereo unspecified), less than 1 µg/mL. In the case of `Fc1ccc(-c2ccc(Nc3nc(-c4ccncc4)nc4ccccc34)cc2F)c(F)c1` it was less than 1 µg/mL. In the case of `COc1ccc(C(=O)NC2CCCc3c2[nH]c2ccccc32)cc1OC` (stereo unspecified) it was 4.79 µg/mL (≈ 13.7 µM); in that of `Fc1ccc(Nc2nc(C3=CCNCC3)nc3ccccc23)cc1F`, greater than 50 µg/mL. Molecule `Cn1c(CN2CCCCC2)nc2cc(NC(=O)c3cccc(Br)c3)ccc21` yielded a kinetic solubility greater than 63 µg/mL.

`Cc1ccc(-c2ccc(CNc3nc(-c4ccccc4C(C)C)nc4ccccc34)cc2)cn1` showed a kinetic solubility of less than 1 µg/mL. In the case of `CC(C)(C)c1ccc(C(=O)N2CC(=O)Nc3ccc(F)cc3C2c2ccc(F)cc2)cc1` (stereo unspecified) it was less than 1 µg/mL. In the case of `CNC(=O)c1cc(Oc2ccc(NC(=O)Nc3cc(C(C)(C)C)nn3-c3ccc4ncccc4c3)c(F)c2)ccn1` it was 3.5 µg/mL (≈ 6.32 µM); in that of `O=C(Nc1ccc(S(=O)(=O)Nc2nccs2)cc1)c1ccc2ccccc2c1`, less than 1 µg/mL; in that of `CCc1ccccc1Nc1ncnc2c1cnn2-c1ccc(Cl)cc1`, less than 1 µg/mL. In the case of `CN(C)CCOC1=Cc2ccccc2Sc2ccc(Cl)cc21` it was 26 µg/mL (≈ 78.4 µM). With `CC(=O)NC1CCN(c2nc(-c3ccc(Br)cc3)cs2)CC1`, the solubility (kinetic) is 5.01 µg/mL (≈ 13.2 µM).

In turn, `CCOc1ccc(CCNC(=O)c2ccnn2Cc2cccc(C)c2)cc1OCC` displayed a solubility (kinetic) of 2.88 µg/mL (≈ 7.06 µM). For the molecule `Cc1ccc(-c2cc(C(=O)Nc3ccc(S(=O)(=O)Nc4ccc(C#N)cc4)cc3)c3ccccc3n2)cc1C`, the solubility (kinetic) was 3.79 µg/mL (≈ 7.12 µM). The same measure for `COCCNC(=O)c1ccc(Cn2c(=S)[nH]c3cc4c(cc3c2=O)OCO4)cc1`: 6.98 µg/mL (≈ 16.9 µM); for `Cc1ccc(S(=O)(=O)Nc2cc(C(=O)Nc3nc(-c4ccccc4)cs3)ccn2)cc1`: less than 1 µg/mL. The same measure for `CCOC(=O)c1ccc(NC(=O)c2sc3nc4c(cc3c2N)N2CCC4CC2)cc1`: less than 1 µg/mL; for `CCCc1nnc(NC(=O)c2nc(S(=O)(=O)Cc3ccc(C)cc3)ncc2Cl)s1`: greater than 67 µg/mL.

The term solubility (kinetic) denotes the concentration staying in solution when a stock, usually in DMSO, is diluted into the medium.
